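Grown in 96-well plates, cells were treated for 48 hours with each compound at five concentrations. Insufficient inhibition: endpoint recorded as highest concentration tested. The concentration for 50% growth inhibition is given as GI50.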 The source made the active and inactive calls. Cut-off read from the data, not from the text of the source: active = GI50 up to about 1.1 µM and inactive = higher.
Legend:
Experiment in all cases: NCI-60 cell line screen, 48 h
[1] = tested on: 786-0
[2] = tested on: A498
[3] = tested on: CAKI-1
[4] = tested on: EKVX
[5] = tested on: HCT-116
[6] = tested on: IGROV-1
[7] = tested on: K562
[8] = tested on: MDA-MB-435
[9] = tested on: Malme-3M
[10] = tested on: NCI-H226
[11] = tested on: NCI-H23
[12] = tested on: OVCAR-5
[13] = tested on: RXF 393
[14] = tested on: SF-268
[15] = tested on: SK-MEL-28
[16] = tested on: SNB-19
[17] = tested on: A549
[18] = tested on: NCI/ADR-RES
[19] = tested on: SF-539

[N-]=[N+]=CC(=O)OCC1SCCCS1
GI50 [1]: > 100 µM (inactive)
GI50 [2]: > 100 µM (inactive)
GI50 [3]: 50.4 µM (inactive)
GI50 [4]: > 100 µM (inactive)
GI50 [5]: > 100 µM (inactive)
GI50 [6]: > 100 µM (inactive)
GI50 [7]: > 100 µM (inactive)
GI50 [8]: > 100 µM (inactive)
GI50 [9]: > 100 µM (inactive)
GI50 [10]: > 100 µM (inactive)
GI50 [11]: > 100 µM (inactive)
GI50 [12]: > 100 µM (inactive)
GI50 [13]: > 100 µM (inactive)
GI50 [14]: > 100 µM (inactive)
GI50 [15]: > 100 µM (inactive)
GI50 [16]: > 100 µM (inactive)

O=[N+]([O-])c1ccc2c(/N=N/c3c(O)ccc4ccccc34)c(O)cc(S(=O)(=O)O)c2c1
GI50 [1]: 11.7 µM (inactive)
GI50 [17]: 15.4 µM (inactive)
GI50 [3]: 4.86 µM (inactive)
GI50 [4]: > 50 µM (inactive)
GI50 [5]: 14.4 µM (inactive)
GI50 [6]: 4.89 µM (inactive)
GI50 [7]: 9.16 µM (inactive)
GI50 [8]: 7.98 µM (inactive)
GI50 [9]: 4.06 µM (inactive)
GI50 [10]: 17.5 µM (inactive)
GI50 [11]: 20.9 µM (inactive)
GI50 [18]: 6.92 µM (inactive)
GI50 [12]: 8.34 µM (inactive)
GI50 [13]: 14.8 µM (inactive)
GI50 [14]: 7.31 µM (inactive)
GI50 [19]: 16.5 µM (inactive)
GI50 [15]: 10.1 µM (inactive)
GI50 [16]: 15 µM (inactive)

CCCc1nc(N)nc(C(=O)Nc2cccc(C(F)(F)F)c2)c1CC
GI50 [1]: > 100 µM (inactive)
GI50 [2]: > 100 µM (inactive)
GI50 [17]: > 100 µM (inactive)
GI50 [3]: > 100 µM (inactive)
GI50 [4]: > 100 µM (inactive)
GI50 [5]: > 100 µM (inactive)
GI50 [6]: > 100 µM (inactive)
GI50 [7]: > 100 µM (inactive)
GI50 [9]: > 100 µM (inactive)
GI50 [10]: > 100 µM (inactive)
GI50 [11]: > 100 µM (inactive)
GI50 [12]: > 100 µM (inactive)
GI50 [13]: > 100 µM (inactive)
GI50 [14]: > 100 µM (inactive)
GI50 [19]: > 100 µM (inactive)
GI50 [15]: > 100 µM (inactive)
GI50 [16]: > 100 µM (inactive)

COc1cc(C2CC(C)(N3CCOCC3)Oc3cc4c(cc32)OCO4)cc(OC)c1OC (configuration not stated)
GI50 [1]: 0.157 µM (active)
GI50 [17]: 2.14 µM (inactive)
GI50 [3]: 0.177 µM (active)
GI50 [5]: 0.129 µM (active)
GI50 [6]: 0.222 µM (active)
GI50 [7]: 0.026 µM (active)
GI50 [8]: < 0.01 µM (active)
GI50 [9]: 0.0726 µM (active)
GI50 [10]: 5.35 µM (inactive)
GI50 [11]: 0.209 µM (active)
GI50 [18]: 0.2 µM (active)
GI50 [12]: > 100 µM (inactive)
GI50 [14]: 4.83 µM (inactive)
GI50 [19]: 0.0619 µM (active)
GI50 [16]: 0.589 µM (active)

CC(=O)OC1CCC2OOC1O2 (configuration not stated)
GI50 [1]: > 100 µM (inactive)
GI50 [2]: > 100 µM (inactive)
GI50 [17]: > 100 µM (inactive)
GI50 [3]: > 100 µM (inactive)
GI50 [4]: > 100 µM (inactive)
GI50 [5]: > 100 µM (inactive)
GI50 [6]: > 100 µM (inactive)
GI50 [7]: > 100 µM (inactive)
GI50 [9]: > 100 µM (inactive)
GI50 [10]: > 100 µM (inactive)
GI50 [11]: > 100 µM (inactive)
GI50 [12]: > 100 µM (inactive)
GI50 [13]: > 100 µM (inactive)
GI50 [14]: > 100 µM (inactive)
GI50 [19]: > 100 µM (inactive)
GI50 [15]: > 100 µM (inactive)
GI50 [16]: > 100 µM (inactive)

CCCC[C@H](CCc1ccccc1)N(C(=O)OC)N1CCC[C@H]1COC
GI50 [1]: 21.4 µM (inactive)
GI50 [2]: 18.1 µM (inactive)
GI50 [17]: 24.8 µM (inactive)
GI50 [3]: 29.9 µM (inactive)
GI50 [4]: 17.5 µM (inactive)
GI50 [5]: 13.6 µM (inactive)
GI50 [6]: 20.9 µM (inactive)
GI50 [7]: 21.7 µM (inactive)
GI50 [9]: 16.3 µM (inactive)
GI50 [10]: 20.2 µM (inactive)
GI50 [11]: 17.2 µM (inactive)
GI50 [12]: 17.8 µM (inactive)
GI50 [13]: 18.1 µM (inactive)
GI50 [14]: 19.5 µM (inactive)
GI50 [19]: 18 µM (inactive)
GI50 [15]: 19.9 µM (inactive)
GI50 [16]: 16.4 µM (inactive)

N#C/C(=C\c1c(Cl)cccc1Cl)c1ccccc1
GI50 [1]: 4.92 µM (inactive)
GI50 [2]: 3.13 µM (inactive)
GI50 [17]: 7.8 µM (inactive)
GI50 [3]: 8.47 µM (inactive)
GI50 [4]: 18.3 µM (inactive)
GI50 [5]: 4.36 µM (inactive)
GI50 [6]: 9.29 µM (inactive)
GI50 [7]: 3.15 µM (inactive)
GI50 [9]: 10.2 µM (inactive)
GI50 [10]: > 22.9 µM (inactive)
GI50 [11]: 14.9 µM (inactive)
GI50 [12]: > 77.4 µM (inactive)
GI50 [13]: 6.12 µM (inactive)
GI50 [14]: 18.5 µM (inactive)
GI50 [19]: 2.72 µM (inactive)
GI50 [15]: 6.92 µM (inactive)
GI50 [16]: 3.66 µM (inactive)

COC(=O)[C@@]1(C)/C(=N/NS(=O)(=O)c2ccc(C)cc2)CCC[C@@H]1C
GI50 [1]: > 100 µM (inactive)
GI50 [2]: > 100 µM (inactive)
GI50 [17]: > 100 µM (inactive)
GI50 [3]: > 100 µM (inactive)
GI50 [4]: > 100 µM (inactive)
GI50 [5]: > 100 µM (inactive)
GI50 [6]: > 100 µM (inactive)
GI50 [7]: 74.3 µM (inactive)
GI50 [9]: > 100 µM (inactive)
GI50 [10]: > 100 µM (inactive)
GI50 [11]: > 100 µM (inactive)
GI50 [12]: > 100 µM (inactive)
GI50 [13]: > 100 µM (inactive)
GI50 [14]: > 100 µM (inactive)
GI50 [19]: 88.3 µM (inactive)
GI50 [15]: > 100 µM (inactive)
GI50 [16]: > 100 µM (inactive)

O=S(=O)(c1ccccc1)n1cc(C[P+](c2ccccc2)(c2ccccc2)c2ccccc2)c2ccccc21
GI50 [1]: 5.04 µM (inactive)
GI50 [2]: 15.6 µM (inactive)
GI50 [17]: 10.9 µM (inactive)
GI50 [3]: 13.9 µM (inactive)
GI50 [4]: 3.33 µM (inactive)
GI50 [5]: 3.81 µM (inactive)
GI50 [6]: 2.08 µM (inactive)
GI50 [7]: 2.65 µM (inactive)
GI50 [9]: 4.38 µM (inactive)
GI50 [10]: 4.81 µM (inactive)
GI50 [11]: 2.99 µM (inactive)
GI50 [12]: 17.2 µM (inactive)
GI50 [13]: 6.35 µM (inactive)
GI50 [14]: 5.66 µM (inactive)
GI50 [19]: 4.59 µM (inactive)
GI50 [15]: 2.7 µM (inactive)
GI50 [16]: 2.61 µM (inactive)

CCc1nc(N)nc(C(=O)NCCNC(=O)c2nc(N)nc(CC)c2C)c1C
GI50 [1]: > 100 µM (inactive)
GI50 [2]: > 100 µM (inactive)
GI50 [17]: > 100 µM (inactive)
GI50 [3]: > 100 µM (inactive)
GI50 [4]: > 100 µM (inactive)
GI50 [5]: > 100 µM (inactive)
GI50 [6]: > 100 µM (inactive)
GI50 [7]: > 100 µM (inactive)
GI50 [9]: > 100 µM (inactive)
GI50 [10]: > 100 µM (inactive)
GI50 [11]: > 100 µM (inactive)
GI50 [12]: > 100 µM (inactive)
GI50 [13]: > 100 µM (inactive)
GI50 [14]: > 100 µM (inactive)
GI50 [19]: > 100 µM (inactive)
GI50 [15]: > 100 µM (inactive)
GI50 [16]: > 100 µM (inactive)

NCCCCNc1ccc2c(=O)[nH][nH]c(=O)c2c1
GI50 [1]: > 100 µM (inactive)
GI50 [2]: > 100 µM (inactive)
GI50 [17]: > 100 µM (inactive)
GI50 [3]: > 100 µM (inactive)
GI50 [4]: > 100 µM (inactive)
GI50 [5]: > 100 µM (inactive)
GI50 [6]: > 100 µM (inactive)
GI50 [7]: > 100 µM (inactive)
GI50 [9]: > 100 µM (inactive)
GI50 [10]: > 100 µM (inactive)
GI50 [11]: > 100 µM (inactive)
GI50 [12]: > 100 µM (inactive)
GI50 [13]: > 100 µM (inactive)
GI50 [14]: > 100 µM (inactive)
GI50 [19]: > 100 µM (inactive)
GI50 [15]: > 100 µM (inactive)
GI50 [16]: > 100 µM (inactive)

O=C1C=CC(=O)C2=C1[C@@H](O)C1CC=CC3C(=O)O[C@@H]2C31 (some centres not stated)
GI50 [1]: 26.2 µM (inactive)
GI50 [2]: > 100 µM (inactive)
GI50 [17]: > 52.7 µM (inactive)
GI50 [3]: 20.4 µM (inactive)
GI50 [4]: > 59.6 µM (inactive)
GI50 [5]: 19.8 µM (inactive)
GI50 [6]: 14.8 µM (inactive)
GI50 [7]: 18.5 µM (inactive)
GI50 [9]: 19.1 µM (inactive)
GI50 [10]: 37.5 µM (inactive)
GI50 [11]: 27 µM (inactive)
GI50 [12]: 74.3 µM (inactive)
GI50 [13]: 18 µM (inactive)
GI50 [14]: 43.1 µM (inactive)
GI50 [19]: > 43.9 µM (inactive)
GI50 [15]: > 45.8 µM (inactive)
GI50 [16]: > 100 µM (inactive)
